Measurements published in article PMC9375929, “Functional and structural characteristics of HLA-B*13:01-mediated specific T cells reaction in dapsone-induced drug hypersensitivity” (Journal of Biomedical Science, 2022).

Target: T1, HLA-B*13:01 (with beta-2-microglobulin) (Homo sapiens, UniProt A0A583ZBB4)
T1 construct: for SPR incubated with beta-2-microglobulin (Chemicon) and amine-coupled; no peptide ligand mentioned for SPR; with Beta-2-microglobulin
Assay: surface plasmon resonance (Biacore T200), protein immobilised by amine coupling
Format: binding

How did the Kd turn out when `Nc1ccc(S(=O)(=O)c2ccc(N)cc2)cc1` [DDS] was run?
The Kd was 68.5 µM.
